Source: patent US6515025B2, “Use of ethynyl alanine amino diol compounds to inhibit enzymatic conversion of angiotensinogen to angiotensin I” (Pharmacia Corporation, priority 1991, dated 2003)

Target: T1, renin (Cyno Monkey plasma) (Macaca fascicularis, UniProt Q6DLS0)
T1 construct: the animal plasma is the source of both the renin substrate and the renin enzyme; from tissue; host or cells: pooled cynomolgus monkey plasma
T1 sequence (Q6DLS0 67-406): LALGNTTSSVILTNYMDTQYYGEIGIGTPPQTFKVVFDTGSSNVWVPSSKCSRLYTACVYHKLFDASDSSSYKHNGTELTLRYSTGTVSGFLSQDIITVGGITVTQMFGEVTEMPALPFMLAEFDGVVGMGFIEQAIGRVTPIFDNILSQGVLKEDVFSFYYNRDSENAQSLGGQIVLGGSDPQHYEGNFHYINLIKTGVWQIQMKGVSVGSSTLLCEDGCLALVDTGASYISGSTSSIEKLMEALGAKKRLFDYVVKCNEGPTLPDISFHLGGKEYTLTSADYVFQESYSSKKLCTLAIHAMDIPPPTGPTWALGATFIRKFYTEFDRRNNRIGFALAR
Test: Renin inhibitor species specificity, cyno monkey plasma renin activity
Type: biochemical
Experimental: Blood was collected in a 10 ml Becton Dickinson vacutainer tube with 0.1 ml of 15% EDTA (K3) solution (15 mg) from normal animals or high renin animals; i.e., those pre-treated with 5 mg/kg of Lasix® intramuscularly 2 times within a 6 hour interval 24 hours prior to bleeding. The blood was then centrifuged at 2500 RPM for 20 minutes and the plasma from the various species respectively pooled, aliquoted and stored in the freezer. The human plasma source was taking a prescription of an angiotensin converting enzyme inhibitor.
The plasma renin activity assay is a modification of the human renin inhibition test in that the animal plasma is the source of both the renin substrate and the renin enzyme. In a total volume of 0.1 ml, 90 mM Tris-acetate buffer, pH 7.5, 12 mM sodium EDTA, 0.012 mg/ml neomycin sulfate, 0.9 mg/ml bovine serum albumin, 1.61 mM phenylmethyl sulfonyl fluoride, 4 mM 8-hydroxyquinoline and 0.09 ml of the animal or human plasmas were incubated for 2 hours at 37° C. in a shaking water bath or at 4° C. in an ice bath in the presence or absence of renin inhibitors. The produced angiotensin I was determined by radioimmunoassay (New England Nuclear kit).
The amount of angiotensin I generated during the 2 hours at 4° C. was usually less than 5% of that activity produced at 37° C.; however, the 4° C. background values were nevertheless subtracted from the 37° C. ones for the 100% activity values. The renin inhibitors were assayed in duplicate using 5 concentrations and the data is expressed as a percent of the 100% total renin activity.

% of Total Renin Activity (1 nM): 81%
% of Total Renin Activity (4 nM): 51%
% of Total Renin Activity (16 nM): 18%
Structure (SMILES): C#CC[C@H](NC(=O)C(CC(=O)N(C)CCN(C)C)Cc1ccccc1)C(=O)NC(CC1CCCCC1)[C@@H](O)C(O)CC(C)C (relative stereo) [Example 1, N1-[1R*-[[[1S,1R*-(cyclohexylmethyl)-2S*,3R*-dihydroxy-5-methylhexyl]amino]carbonyl]-3-butynyl]-N4-[2-(dimethylamino)ethyl]-N4-methyl-2S*-(phenylmethyl)butanediamide]
